Measurements published in patent publication US10280198B2, “Therapeutic agents for reducing parathyroid hormone levels” (KAI PHARMACEUTICALS, INC., priority 2009, dated 2019).
Where two headings read alike, the source gives them in different places. Square brackets hold non-standard residues; d marks the D form. Peptide text beside a SMILES is read from it.

Assays:
[1] = biological target: T1, human calcium-sensing receptor (CaSR) (Homo sapiens, UniProt P41180); experiment: In vitro cell assay in HEK-293 expressing the human calcium-sensing receptor (IP1 production); assay type: cell-based
T1 construct: expressed in transfected cells; host or cells: HEK 293T cells, transiently transfected (lipofectamine 2000); in some cases HEK293 cells stably transfected
T1 sequence (P41180 20-1078): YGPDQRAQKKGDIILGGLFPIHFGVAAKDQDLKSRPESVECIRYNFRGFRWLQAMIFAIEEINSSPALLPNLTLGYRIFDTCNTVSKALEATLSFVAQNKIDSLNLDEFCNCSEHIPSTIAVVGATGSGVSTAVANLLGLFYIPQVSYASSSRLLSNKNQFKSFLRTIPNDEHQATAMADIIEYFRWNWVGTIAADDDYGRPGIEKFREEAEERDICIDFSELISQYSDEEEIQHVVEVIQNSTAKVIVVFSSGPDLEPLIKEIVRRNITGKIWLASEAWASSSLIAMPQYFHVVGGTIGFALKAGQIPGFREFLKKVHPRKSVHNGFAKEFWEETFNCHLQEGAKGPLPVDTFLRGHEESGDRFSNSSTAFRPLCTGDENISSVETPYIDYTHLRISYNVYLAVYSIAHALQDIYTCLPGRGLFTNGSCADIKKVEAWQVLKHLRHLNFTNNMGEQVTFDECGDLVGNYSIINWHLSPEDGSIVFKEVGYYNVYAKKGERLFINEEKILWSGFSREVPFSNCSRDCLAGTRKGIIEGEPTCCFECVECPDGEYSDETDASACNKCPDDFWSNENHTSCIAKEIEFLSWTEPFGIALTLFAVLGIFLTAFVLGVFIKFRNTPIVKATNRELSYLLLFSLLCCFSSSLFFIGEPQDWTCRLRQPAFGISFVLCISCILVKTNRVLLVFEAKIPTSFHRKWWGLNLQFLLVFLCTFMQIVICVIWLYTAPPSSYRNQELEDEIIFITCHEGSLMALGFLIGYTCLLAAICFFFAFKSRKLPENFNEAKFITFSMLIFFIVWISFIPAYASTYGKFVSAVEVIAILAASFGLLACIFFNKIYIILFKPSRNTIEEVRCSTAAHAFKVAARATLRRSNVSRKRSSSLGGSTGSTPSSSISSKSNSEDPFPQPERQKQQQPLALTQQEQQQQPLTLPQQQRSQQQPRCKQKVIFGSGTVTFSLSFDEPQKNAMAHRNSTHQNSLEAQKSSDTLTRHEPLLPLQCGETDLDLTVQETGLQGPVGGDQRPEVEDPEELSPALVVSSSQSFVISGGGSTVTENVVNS
Protocol: The activity of a variety of peptides and conjugates was tested against the human CaSR. These studies were conducted by measuring IP1 production in HEK293 cells that express the human CaSR. Each peptide was tested in eight different concentrations, in duplicates, to establish a dose response curve. Curve fitting was performed using GraphPad Prism. In Table 5, and throughout the specification, residues provided in capital letters are L-amino acids, while lower case letters indicate D-amino acids. “Ac” indicates an acetyl capping group, “NH2” indicates an amide capping group, “Ac-bAla” is an acetylated beta-alanine, “GSH” indicates reduced glutathione, “GS” indicates oxidized glutathione, “PEG” refers to polyethylene glycol, “PEG2” and “PEGS” refer to polyethylene glycol moieties of 2 kDa and 5 kDa, respectively, and “Mpa” refers to mercaptopropionic acid.
The day after, these cells were transfected with human CaSR receptor using lipofectamine 2000 transfection reagent 24 hrs post transfection, cells were seeded in 384 well plates at 8,000 cells/well. […] In some cases, EC50 values were determined by measuring inositol monophosphate production in the HEK293 cells, stably transfected with the human calcium-sensing receptor (see Table 1).
Cells were incubated with compounds at various concentrations (1 mM or 300 μM as the highest and further ½ log serial dilutions) at 37° C. for 1.5 hrs before reaction termination. […] In brief, incubation with the compound was terminated by sequentially adding D2 labeled-IP1 and cryptate-labeled anti-IP1 in lysis buffer and further incubating at room temperature for 60 minutes. […] Non-transfected 293 cells were used as negative control.
IP1 concentrations were calculated from standard curves (generated with Graph Pad Prism ver. 4) using known concentrations of IP1 standards.

plasma PTH = experiment: In vivo PTH lowering after IV bolus in isoflurane-anesthetized normal Sprague Dawley rats; set-up: species or system rat; settings: for duration of decreased PTH: 0.5 mg/kg IV bolus, FIG. 5; for duration of decreased PTH / 0.5 mg/kg IV bolus % PTH AUC of saline control: normal rats; for % PTH reduction of baseline at 1 hour post IV admin. of 0.5 mg/kg compound: isoflurane-anesthetized normal rats, 0.5 mg/kg IV; for PTH-lowering activity in normal rats: 0.5 mg/kg single IV administration
In short: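 Peptides were given as a 0.5 mg/kg IV bolus to normal Sprague Dawley rats kept under isoflurane throughout, with saline bolus controls.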

[2] = tested on: rat peritoneal mast cells; experiment: In vitro histamine induction in rat peritoneal mast cells; assay type: cell-based
In short: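 Mast cells from peritoneal lavage of Sprague Dawley rats were incubated with compound at 10 μM for 15 min at 37 °C in HBSS + 25 mM HEPES pH 7.4. Supernatant histamine measured by EIA; response expressed as fold change versus pre-incubation levels.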

[3] = Table 1, IP1 in HEK293 cells expressing human CaSR, read-out: In vitro EC50
[4] = Table 5, IP1 production in HEK293 cells expressing human CaSR, eight concentrations in duplicate, read-out: EC50 in CaSR in vitro assay
[5] = Table 1, PTH at 1, 2, 3, 4 h, AUCcmpd treated/AUCsaline control*100

| Compound | EC50 [1, 3] [nM] | EC50 [1, 4] [nM] | duration of decreased PTH (plasma PTH) | % PTH reduction of baseline at 1 hour post IV admin. of 0.5 mg/kg compound (plasma PTH; Table 1) [%] | 0.5 mg/kg IV bolus % PTH AUC of saline control (plasma PTH; [5]) [%] | Histamine in vitro Fold change of non-treated at 10 uM [2] [fold] | 0.5 mg/kg IV bolus % PTH AUC of saline control (plasma PTH; Table 6, AUC 1-4 h) [%] | PTH-lowering activity in normal rats (plasma PTH) |
| --- | --- | --- | --- | --- | --- | --- | --- | --- |
| CC(=O)N[C@H](CS)C(=O)N[C@H](CCCNC(=N)N)C(=O)N[C@H](CCCNC(=N)N)C(=O)N[C@H](CCCNC(=N)N)C(=O)N[C@H](CCCNC(=N)N)C(=O)N[C@H](C)C(=O)N[C@H](CCCNC(=N)N)C(N)=O [SEQ ID NO: 12, Ac-crrrrar-NH2] (Ac-[dC][dR][dR][dR][dR][dA][dR]-NH2) | 450 | 450 | at least four hours | 3 | 3 | 5.0 | – | – |
| CC(=O)N[C@H](CS)C(=O)N[C@H](C)C(=O)N[C@H](CCCNC(=N)N)C(=O)N[C@H](CCCNC(=N)N)C(=O)N[C@H](CCCNC(=N)N)C(=O)N[C@H](CCC(=O)O)C(=O)N[C@H](CCCNC(=N)N)C(N)=O [SEQ ID NO: 68, Ac-carrrer-NH2] (Ac-[dC][dA][dR][dR][dR][dE][dR]-NH2) | – | 62000 | – | – | – | 1.3 | 81 | – |
| CC(=O)N[C@H](CS)C(=O)N[C@H](CCCNC(=N)N)C(=O)N[C@H](CCCNC(=N)N)C(=O)N[C@H](CCCNC(=N)N)C(=O)N[C@H](CCCNC(=N)N)C(=O)N[C@H](CCCNC(=N)N)C(=O)N[C@H](C)C(N)=O [SEQ ID NO: 13, Ac-crrrrra-NH2] (Ac-[dC][dR][dR][dR][dR][dR][dA]-NH2) | 1100 | 1100 | – | 4 | 28 | 4.1 | – | – |
| CC(=O)N[C@H](CS)C(=O)N[C@H](CCCNC(=N)N)C(=O)N[C@H](C)C(=O)N[C@H](CCCNC(=N)N)C(=O)N[C@H](CCCNC(=N)N)C(=O)N[C@H](CCCNC(=N)N)C(=O)N[C@H](CCCNC(=N)N)C(N)=O [SEQ ID NO: 9, Ac-crarrrr-NH2] (Ac-[dC][dR][dA][dR][dR][dR][dR]-NH2) | 1000 | 1000 | – | 0 | 7 | 6.8 | – | – |
| CC(=O)N[C@H](CS)C(=O)N[C@H](CCCNC(=N)N)C(=O)N[C@H](CCCNC(=N)N)C(=O)N[C@H](C)C(=O)N[C@H](CCCNC(=N)N)C(=O)N[C@H](CCCNC(=N)N)C(=O)N[C@H](CCCNC(=N)N)C(N)=O [SEQ ID NO: 10, Ac-crrarrr-NH2] (Ac-[dC][dR][dR][dA][dR][dR][dR]-NH2) | 1100 | 1100 | at least four hours | 0 | 0 | 5.3 | – | below the detection limit or essentially zero |
| CC(=O)N[C@H](CS)C(=O)N[C@H](CCCNC(=N)N)C(=O)N[C@H](CCCNC(=N)N)C(=O)N[C@H](CCCNC(=N)N)C(=O)N[C@H](C)C(=O)N[C@H](CCCNC(=N)N)C(=O)N[C@H](CCCNC(=N)N)C(N)=O [SEQ ID NO: 11, Ac-crrrarr-NH2] (Ac-[dC][dR][dR][dR][dA][dR][dR]-NH2) | 5900 | 5900 | – | 9 | 45 | 5.0 | – | – |
| CC(=O)N[C@H](CS)C(=O)N[C@H](C)C(=O)N[C@H](CCCNC(=N)N)C(=O)N[C@H](CCCNC(=N)N)C(=O)N[C@H](CCCNC(=N)N)C(=O)N[C@H](CCCNC(=N)N)C(=O)N[C@H](CCCNC(=N)N)C(N)=O [SEQ ID NO: 8, Ac-carrrrr-NH2] (Ac-[dC][dA][dR][dR][dR][dR][dR]-NH2) | 1100 | 1100 | at least four hours | 0 | 0 | 6.6 | – | below the detection limit or essentially zero |
